Measurements: patent US11083735B2, “Methods for treating sleep disorders, sleep disturbances, and related symptoms using aminosterol compositions” (Enterin, Inc., priority 2017, dated 2021)
Values joined by “and” are separate entries in the source; they are usually repeats but may differ in a detail not shown here. Equal values may be shown once.

What was measured:
[1] = system: colons from WT (1 yr old FVB/NJ) mice; experiment: Isolated colon motility, WT mice; design: species or system mouse
Description: FIGS. 14A-14B show additional effects of squalamine in mice.
Parkinson's disease is associated with varying degrees of constipation, typically beginning decades before diagnosis, and all too often has a profound negative impact on quality of life. It is believed that the ENS in PD is damaged earlier but by the same processes that damage the neurons of the CNS. In our clinical experience oral administration to several individuals with advanced Parkinson's disease corrected long standing constipation within days of initiation of treatment. We explored whether the human experience could be reproduced in the mouse. In the experiments illustrated below studies of colonic motility were conducted using organs from WT (1 yr old FVB/NJ) or PD mice, in which the murine αSynuclein gene has been excised and replaced by several copies of the human αSynuclein gene driven by the normal murine promoter.
The isolated colon from the PD strain presents a more sluggish peristaltic wave than that from the WT animal (black columns).

[2] = system: patients with PD; experiment: Phase 2 trial Stage 2: CNS symptoms (UPDRS, MMSE, BDI-II, PDHQ, hallucinations); type: in vivo, human
Description: (8) Beck Depression Inventory (BDI-II);
(9) Unified Parkinson's Disease Rating Scale (UPDRS), which consists of 42 items in four subscales (Part I=Non-Motor Aspects of Experiences of Daily Living (nM-EDL) (1.1 cognitive impairment, 1.2 hallucinations and psychosis, 1.3 depressed mood, Part II=Motor Aspects of Experiences of Daily Living (M-EDL), Part III=Motor Examination, and Part IV=Motor Complications;
(10) Mini Mental State Examination (MMSE);
(12) The University of Miami Parkinson's Disease Hallucinations Questionnaire (UM-PDHQ);
Exploratory end-points, in addition to constipation, included for example, (i) depression assessed using the Beck Depression Inventory (BDI-II) (Steer et al. 2000) and Unified Parkinson's Disease Rating Scale (UPDRS); (ii) cognition assessed using the Mini Mental State Examination (MMSE) (Palsteia et al. 2018), Unified Parkinson's Disease Rating Scale (UPDRS), and Trail Making Test (TMT); (iii) sleep and REM-behavior disorder (RBD) using a daily sleep diary, I-Button Temperature Assessment, a REM sleep behavior disorder (RBD) questionnaire (RBDQ) (Stiasny-Kolster et al. 2007), and the UPDRS; (iv) hallucinations assessed using the PD hallucinations questionnaire (PDHQ) (Papapetropoulos et al. 2008), the UPDRS, and direct questioning; (v) fatigue using the Parkinson's Disease Fatigue Scale (PFS-16) and the UPDRS; (vi) motor functions using the UPDRS; and (vii) non-motor functions using the UPDRS.
Assessments were made at baseline and at the end of the fixed dose and washout periods. Circadian system status was evaluated by continuously monitoring wrist skin temperature (Thermochron iButton DS1921H; Maxim, Dallas) following published procedures (Sarabia et al. 2008).
CNS Symptoms in Stage 2: An exploratory analysis was done with respect to the sleep data, the body temperature data, mood, fatigue, hallucinations, cognition and other motor and non-motor symptoms of PD. Continuous measurements within a subject were compared with a paired t-test and continuous measurements between subject groups were compared with a two-group t-test. Categorical data were compared with a chi-squared test or a Fisher's exact test if the expected cell counts are too small for a chi-squared test.
CNS symptoms: CNS symptoms were evaluated at baseline and at the end of the fixed dose period and the wash-out period (Table 16). Total UPDRS score was 64.4 at baseline, 60.6 at the end of the fixed dose period and 55.7 at the end of the wash-out period (p=0.002); similarly, the motor component of the UPDRS improved from 35.3 at baseline to 33.3 at the end of fixed dose to 30.2 at the end of wash-out (p=0.006). MMSE improved from 28.4 at baseline to 28.7 during treatment and to 29.3 during wash-out (p=0.0006). […] PDHQ improved from 1.3 at baseline to 1.8 during treatment and 0.9 during wash-out (p=0.03). Hallucinations were reported by 5 patients at baseline and delusions in 1 patient. […] The frequency of arm or leg thrashing reported in the sleep diary diminished progressively from 2.2 episodes/week at baseline to 0 at maximal dose. […] Unlike stool-related indices, the improvement in many CNS symptoms persisted during wash-out.

[3] = target: αS (Homo sapiens, UniProt P37840); conditions: in vitro (Perni et al. 2017); cited from earlier work

CC(C)[C@@H](CC[C@@H](C)[C@H]1CC[C@H]2[C@@H]3[C@H](O)C[C@H]4C[C@@H](NCCCNCCCCN)CC[C@]4(C)[C@H]3CC[C@]12C)OS(=O)(=O)O [squalamine]
speed of the colonic peristaltic wave ([1]; WT colon, FIG. 14B): stimulates the speed of the colonic peristaltic wave
force of peristaltic contractions ([1]; WT colon, squalamine added to lumen, FIG. 14A): increases the force of contractions
colon migrating motor complex (MMC) peak pressure waves ([1]; intraluminal application, legend of FIG. 14A): no apparent effect
MMC propagation velocity from oral to anal ([1]; intraluminal application, legend of FIG. 14B): increased

CC(C)[C@@H](CC[C@@H](C)[C@H]1CC[C@H]2[C@@H]3[C@H](O)C[C@H]4C[C@@H](NCCCNCCCCN)CC[C@]4(C)[C@H]3CC[C@]12C)OS(=O)(=O)O (single isomer, unassigned; ent-01) [ENT-01]
PDHQ, Fixed dose (Mean, SD) ([2]; Stage 2, end of fixed dose period, baseline 1.3 (2.99)): 1.8
BDI-II, Fixed dose (Mean, SD) ([2]; Stage 2, end of fixed dose period, baseline 10.9 (7.12)): 9.9
UPDRS Part 1 (NMS), Fixed dose (Mean, SD) ([2]; Stage 2, end of fixed dose period, baseline 11.6 (6.51)): 10.6
UPDRS Part 2 (Daily living), Fixed dose (Mean, SD) ([2]; Stage 2, end of fixed dose period, baseline 14.9 (8.11)): 14.7
MMSE, Fixed dose (Mean, SD) ([2]; Stage 2, end of fixed dose period, baseline 28.4 (1.75)): 28.7
UPDRS Part 3 (Motor), Fixed dose (Mean, SD) ([2]; Stage 2, end of fixed dose period, baseline 35.3 (14.35)): 33.3
UPDRS Total, Fixed dose (Mean, SD) ([2]; Stage 2, end of fixed dose period, baseline 64.4 (23.72)): 60.6
PDHQ, Wash-out (Mean, SD) ([2]; Stage 2, end of wash-out period, baseline 1.3 (2.99)): 0.9 (2.33)
BDI-II, Wash-out (Mean, SD) ([2]; Stage 2, end of wash-out period, baseline 10.9 (7.12)): 8.7 (5.19)
UPDRS Part 1 (NMS), Wash-out (Mean, SD) ([2]; Stage 2, end of wash-out period, baseline 11.6 (6.51)): 9.5 (5.27)
UPDRS Part 2 (Daily living), Wash-out (Mean, SD) ([2]; Stage 2, end of wash-out period, baseline 14.9 (8.11)): 14.1 (8.21)
MMSE, Wash-out (Mean, SD) ([2]; Stage 2, end of wash-out period, baseline 28.4 (1.75)): 29.3 (1.06)
UPDRS Part 3 (Motor), Wash-out (Mean, SD) ([2]; Stage 2, end of wash-out period, baseline 35.3 (14.35)): 30.2 (13.23)
UPDRS Total, Wash-out (Mean, SD) ([2]; Stage 2, end of wash-out period, baseline 64.4 (23.72)): 55.7 (23.69)
hallucinations in one patient ([2]; at 100 mg (prokinetic dose of this patient 175 mg)): disappeared
BDI-II ([2]; at wash-out): 8.7
patients in whom hallucinations and delusions improved or disappeared ([2]; during treatment): 5 of 6
PDHQ ([2]; during treatment, baseline 1.3): 1.8
BDI-II ([2]; during treatment, baseline 10.9): 9.9
MMSE ([2]; during treatment, baseline 28.4): 28.7
MMSE ([2]; during wash-out): 29.3
PDHQ ([2]; during wash-out): 0.9
motor component of the UPDRS ([2]; end of fixed dose, baseline 35.3): 33.3
Total UPDRS score ([2]; end of the fixed dose period, baseline 64.4): 60.6
Total UPDRS score ([2]; end of the wash-out period): 55.7
motor component of the UPDRS ([2]; end of wash-out): 30.2
time free of hallucinations following cessation of dosing ([2]; one patient): 1 month
time without return of hallucinations/delusions following discontinuation ([2]; single patients): 4 weeks and 2 weeks
formation of aggregates of αS [3]: inhibit the formation of aggregates
